This note sets out measurements from ChEMBL document CHEMBL1153070, “Urea and carbamate derivatives of primaquine: synthesis, cytostatic and antioxidant activities” (Bioorg Med Chem, 2009).

pIC50: −log10 of the molar value. Active and inactive are the calls of the source. The calls are words filed in the database; no cut-off is given here.

For test [1], the system named is Radical scavenging activity. In words: Antioxidant activity assessed as DPPH radical scavenging activity at 0.05 mM after 20 mins. The format is functional.
In test [2] the test system is Radical scavenging activity. The test is described as follows: Antioxidant activity assessed as DPPH radical scavenging activity at 0.1 mM after 60 mins. It counts as functional.
Test [3] has as its system Radical scavenging activity. In words: Antioxidant activity assessed as DPPH radical scavenging activity at 0.05 mM after 60 mins. The format is functional.
Test [4] deals with Radical scavenging activity. The test is described as follows: Antioxidant activity assessed as DPPH radical scavenging activity at 0.1 mM after 20 mins. It counts as functional.
The test system of test [5] is Radical scavenging activity. In words: Antioxidant activity assessed as DPPH radical scavenging activity. It counts as functional.
Test [6] is described as follows: Antioxidant activity assessed as inhibition of AAPH-induced lipid peroxidation at 0.1 mM. The format is functional.
In another test the test system is Glycine max. In words: Inhibition of soybean lipoxygenase.
In another test the test system is HCT-116. The test is described as follows: Cytostatic activity against human HCT116 cells. It counts as functional, cell-based.
A further test deals with NCI-H460. In words: Cytostatic activity against human H460 cells. The format is functional, cell-based.
The test system of another test is MOLT-4. The test is described as follows: Cytostatic activity against human MOLT4 cells. The format is functional, cell-based.
For test [7], the system named is MCF7. In words: Cytostatic activity against human MCF7 cells. The format is functional, cell-based.
Another test has as its system SW-620. The test is described as follows: Cytostatic activity against human SW620 cells. It counts as functional, cell-based.
Test [8] relates to MCF7. In words: Antiproliferative activity against human MCF7 cells at 100 uM after 24 hrs. The format is functional. As to conditions: MCF7, 24 h.

As to `COc1cc(NC(C)CCCNC(=O)n2nnc3ccccc32)c2ncccc2c1` (stereo not given) [PRIMAQUINE BENZOTRIAZOLIDE], the Activity in test [1] was 18.4%; in [2], 73.8%; in test [3], 20%; in test [4] it was 16.7%; in [5], “Dose-dependent effect”. Further, in test [6], the IC50 entry is recorded as “Not Active”. In addition, the INH in the test with Glycine max stood at 260 µM.
As for `COc1cc(NC(C)CCCNC(=O)NC(CO)(CO)CO)c2ncccc2c1` (stereo not given), the negative-log IC50 (pIC50) was less than 4.00 in the test with HCT-116; less than 4.00 with NCI-H460; less than 4.00 in the test with MOLT-4; 4.62 in the test on MCF7 [7]; less than 4.00 with SW-620. Also, the Activity in test [1] is 24.4%; in test [2] it was 40.5%; in [3], 22.3%; in test [4] it was 28.6%; in test [5] it was “Dose-dependent effect”. For the same compound, the Inhibition in test [6] is listed as 86%. The inhibition result with Glycine max was “inactive”.
`COc1cc(NC(C)CCCN)c2ncccc2c1` (stereo not given) [PRIMAQUINE]: the pIC50 was 4.70 with HCT-116, 4.52 in the test on NCI-H460, 4.55 with MCF7 [7] and not above 4.00 in the test with SW-620. For the same compound, the Activity in test [1] is 17.2%; in test [2], 21.9%; in test [3], 19%; in [4] it was 18.1%. The Inhibition in test [6] is 45%. Besides, the INH in the test with Glycine max came to 74 µM. In the test on MCF7 [8], this compound yielded an inhibition at 100 µM of 20%.
Consider `COc1cc(NC(C)CCCNC(=O)N(C2CCCCC2)C2CCCCC2)c2ncccc2c1` (stereo not given), for which the Activity was 3.9% in [1]; 42.9% in test [2]; 28.8% in test [3]; 42.9% in [4]; “Dose-dependent effect” in test [5]. In test [6], the Inhibition amounted to 96%. Besides, the INH in the test on Glycine max came to 320 µM.
For `COc1cc(NC(C)CCCNC(=O)NCCCO)c2ncccc2c1` (stereo not given), the pIC50 in the test with HCT-116 was less than 4.00; in the test with NCI-H460, less than 4.00; in the test with MOLT-4, less than 4.00; in the test with MCF7 [7], 4.51; in the test with SW-620, less than 4.00. The Activity in [1] is 12.2%; in [2] it was 33.3%; in test [3] it was 27.7%; in test [4], 28.6%; in test [5] it was “Dose-dependent effect”. In [6], the Inhibition was 56%. Besides, the INH in the test with Glycine max turned out to be 230 µM.
As to `COc1cc(NC(C)CCCNC(=O)NOCc2ccccc2)c2ncccc2c1` (stereo not given), the pIC50 with HCT-116 is 4.85; in the test with NCI-H460 it was 4.68; with MOLT-4, 4.92; with MCF7 [7] it was 5.05; in the test with SW-620, 4.70. The outcome in [1] and in test [3] was inactive. For the same compound, the Activity is 38.1% in test [2], 11.4% in test [4] and “Dose-dependent effect” in test [5]. Besides, in test [6], the Inhibition was 82%. In addition, in the test with Glycine max, the INH is 230 µM.
`COc1cc(NC(C)CCCNC(=O)N(CCO)CCO)c2ncccc2c1` (stereo not given): the pIC50 with HCT-116 is less than 4.00; in the test with NCI-H460, less than 4.00; in the test on MOLT-4, less than 4.00; in the test with MCF7 [7] it was 4.44; with SW-620, less than 4.00. Also, the Activity in test [1] is 20.7%; in test [2] it was 11.9%; in test [3], 7.4%; in test [5] it was “Dose-dependent effect”. Further, in test [4], the result was inactive. The Inhibition in [6] stood at 85%. The INH with Glycine max is 86 µM.
On to `COc1cc(NC(C)CCCNC(=O)NO)c2ncccc2c1` (stereo not given), for which the pIC50 in the test on HCT-116 was 4.24; in the test with NCI-H460 it was less than 4.00; in the test on MOLT-4 it was less than 4.00; in the test with MCF7 [7], 4.36; with SW-620, 4.46. The Activity is 2.2% in test [1]; 84.5% in test [2]; 60.6% in [3]; 88.1% in [4]; “Dose-dependent effect” in [5]. In addition, in test [6], the Inhibition stood at 69%. The INH in the test on Glycine max amounted to 83 µM.
With `COc1cc(N2C(=O)NCCCC2C)c2ncccc2c1` (stereo not given), the pIC50 was less than 4.00 in the test with HCT-116; less than 4.00 in the test on NCI-H460; not above 4.00 with MOLT-4; less than 4.00 in the test on MCF7 [7]; less than 4.00 in the test on SW-620. The Activity in test [1] was 30.5%; in [2], 57.1%; in test [3], 40%; in test [4], 48.8%; in [5], “Dose-dependent effect”. For the same compound, the Inhibition in [6] was found to be 88%. This compound showed an INH in the test with Glycine max of 72 µM.
On to `COc1cc(NC(C)CCCNC(=O)NCCCCCO)c2ncccc2c1` (stereo not given), for which the pIC50 is 4.54 in the test with HCT-116; 5.70 in the test on NCI-H460; 4.21 with MOLT-4; 4.36 in the test with MCF7 [7]; 6.70 in the test with SW-620. The outcome in test [1] and in test [3] was inactive. The results for the Activity in [2], in test [4] and in test [5] were 46.4%, 34.5% and “Dose-dependent effect”, respectively. For the same compound, the Inhibition in test [6] stood at 63%. The compound also yielded an INH in the test on Glycine max of 310 µM.
In the case of `O=C(O)/C=C/c1ccc(O)c(O)c1`, in the test on Glycine max, the INH is 600 µM.
Take `COC(=O)NCCCC(C)Nc1cc(OC)cc2cccnc12` (stereo not given): the pIC50 with HCT-116, in the test with NCI-H460, in the test with MOLT-4, in the test with MCF7 [7] and in the test on SW-620 was less than 4.00 in each case. Besides, the Activity in test [1] was 24.4%; in test [2], 48.8%; in test [3] it was 13.8%; in [4] it was 75%; in test [5], “Dose-dependent effect”. For the same compound, the Inhibition in test [6] worked out at 83%. The inhibition result with Glycine max is “inactive”.
With `CCOC(=O)NCCCC(C)Nc1cc(OC)cc2cccnc12` (stereo not given), the negative logarithm of the IC50 (pIC50) with HCT-116 was 4.55; in the test on NCI-H460, 4.42; in the test with MOLT-4, 4.47; with MCF7 [7], 4.59; with SW-620 it was 4.35. In addition, the Activity in [1] was 10.8%; in [2], 31%; in [3], 8.5%; in test [5] it was “Dose-dependent effect”. Also, in test [4], the result was inactive. Besides, the Inhibition in test [6] was found to be 87%. Moreover, the inhibition entry in the test on Glycine max was “inactive”.
Take `COc1cc(NC(C)CCCNC(=O)NC2CCCC2)c2ncccc2c1` (stereo not given): the Activity is 15.8% in test [1]; 19% in [2]; 21.3% in test [3]; 26.2% in [4]; “Dose-dependent effect” in test [5]. In addition, in test [6], the Inhibition stood at 99%. Besides, the INH in the test with Glycine max stood at 220 µM.
With `Cc1c(C)c2c(c(C)c1O)CCC(C)(C(=O)O)O2` (stereo not given) [TROLOX], the Inhibition in test [6] is 63%.
Regarding `CC(Cc1ccc(O)c(O)c1)C(C)Cc1ccc(O)c(O)c1` (stereo not given), the Activity is 83% in test [2] and 81% in test [4].
On to `COc1cc(NC(C)CCCNC(=O)NC2CCCCC2)c2ncccc2c1` (stereo not given), for which the Activity in [1] was 28.9%; in [2], 25%; in [3], 16.3%; in [4] it was 27.4%; in test [5] it was “Dose-dependent effect”. Also, the Inhibition in [6] turned out to be 99%. Besides, in the test on Glycine max, the inhibition result is “inactive”.
For `COc1cc(NC(C)CCCNC(=O)NCCNC(=O)NCCCC(C)Nc2cc(OC)cc3cccnc23)c2ncccc2c1` (stereo not given), the pIC50 was 4.82 with HCT-116; 4.74 in the test with NCI-H460; 5.00 in the test with MOLT-4; 4.51 in the test on MCF7 [7]; 4.77 in the test on SW-620. Further, the Activity in test [1] is 34.2%; in test [2], 40.5%; in [3], 27.6%; in test [4], 35.7%; in test [5], “Dose-dependent effect”. For the same compound, the Inhibition in [6] stood at 99%. The same compound returned an INH with Glycine max of 62 µM.
In the case of `COc1cc(NC(C)CCCNC(=O)NCCO)c2ncccc2c1` (stereo not given), the pIC50 in the test with HCT-116 was less than 4.00; in the test with NCI-H460, less than 4.00; in the test with MOLT-4 it was less than 4.00; in the test with MCF7 [7], 4.60; in the test on SW-620, less than 4.00. The Activity in test [1] is 3.7%; in [2], 51.2%; in [3] it was 10.6%; in test [4], 60.7%; in test [5], “Dose-dependent effect”. Also, in [6], the Inhibition was 81%. The compound also yielded an INH in the test on Glycine max of 315 µM.
As for `NC(=O)NO` [HYDROXYUREA], the pIC50 was 3.65 in the test on HCT-116; less than 4.00 in the test on NCI-H460; less than 4.00 in the test on MOLT-4; less than 4.00 with MCF7 [7]; less than 4.00 with SW-620.
